# Test results published in patent publication US8685928B2, “Antagonists of MUC1” (Dana-Farber Cancer Institute, Inc., priority 2010, dated 2014).
# “Also recorded” adds a separate entry of the source. Positions of bridges follow the written chain, without caps; N, C: chain ends. Non-standard residues stand in square brackets, D forms with d. Residues, ends and D or L forms follow the SMILES beside them.
# What was measured:
# A549 NSCLC = details: human
# Method: (§1) GO-203-2 and GO-203-2c were evaluated for ability to inhibit proliferation of murine and human carcinoma cell lines in vitro. Test compound (5 μM final concentration) was added to tumor cell cultures daily for 5 to 6 days, and cell viability was determined by trypan blue dye exclusion.
# H1650 NSCLC = details: human
# Method: as §1
# H1975 NSCLC = details: human
# Method: as §1
# KW-807 LN NSCLC = details: mouse
# Method: as §1
# KW-814 T6 NSCLC = details: mouse
# Method: as §1
# MCF-7 breast carcinoma = details: human
# Method: as §1
# [1] = tested on: MiaPaCa-2 pancreatic carcinoma; details: human
# Method: as §1
# ZR-75-1 breast carcinoma = details: human
# Method: as §1
# [2] = tested on: human carcinoma cell lines
# Method: A series of in vitro and in vivo primary pharmacodynamic studies was conducted to assess efficacy and mechanism of action of GO-203-2c in human tumor cells.
# as §1
# [3] = tested on: ZR-75-1 human breast carcinoma xenograft; assay: ZR-75-1 human breast carcinoma xenograft model, daily dosing for 21 days; format: in vivo, mouse; details: nu/nu mice
# Method: Efficacy of GO-203-2c was evaluated in a ZR-75-1 human breast carcinoma xenograft model. Female nu/nu mice (20-30 g; Charles River Laboratories, Wilmington, Mass.) were injected in the thigh with 5 million ZR-75-1 cells in Matrigel suspension. Mice also received subcutaneous 17-β-estradiol pellets. When tumors reached 100-200 mm^3 in size (approximately 12-15 days after implantation), mice were split into 4 groups of 5 mice and administered the following treatments daily for 21 days: phosphate-buffered saline (PBS) IP, 1 mg/kg GO-203-2c IV, 4 mg/kg GO-203-2c IV or 4 mg/kg control peptide CP-3 IV. Each animal was sacrificed when the tumor reached the predetermined endpoint size (˜2500 mm^3) or when the animals remained tumor-free for 180 days after implantation of the tumor cells.
# [4] = tested on: ZR-75-1 human breast carcinoma xenograft; assay: ZR-75-1 xenograft model, 5 days on/2 days off IV dosing schedule; format: in vivo, mouse; details: for Mice completely cured / Tumor response: 7.5 mg/kg IV
# Method: In a second study using this ZR-75-1 cell xenograft model, a 5 days on/2 days off IV dosing schedule was used, and groups of 8 mice received either one, two or three cycles utilizing this schedule. […] Tumor growth was cytostatic for 4-5 days after stopping the drug treatment, but tumors subsequently started re-growing similarly to control. […] Tumors in the remaining 5 of 8 mice in this group started re-growing at 8+ days after cessation of treatment. These animals were administered an additional 2 cycles of treatment, starting on Day 29.
# [5] = tested on: A549 non-small cell lung carcinoma xenograft; assay: A549 non-small cell lung carcinoma xenograft model; format: in vivo, mouse; details: for Tumor response: 7.5 mg/kg
# Method: Male BALB/c nu/nu mice (6-7 weeks old; Charles River Laboratories, Wilmington, Mass.) were injected with 5 million A549 or PC3 cells in the right thigh. When tumors reached a predetermined size (approximately 80-100 mm^3; 10-16 days after tumor cell implantation), treatment was initiated as follows: Group 1, saline control (daily×21 days); Group 2, GO-203-2c (7.5 mg/kg, 5 days on/2 days off×3 cycles); Group 3, GO-203-2c (7.5 mg/kg, daily×21 days). In the A549 study, Group 3 animals that still had palpable/measurable tumors at the end of the 21-day treatment period were administered an additional 9 days of GO-203-2c treatment (Group 3′), with a one week interim period between treatments.
# [6] = Dog pivotal repeat-dose toxicity study; format: in vivo; details: for Safety margin: human starting dose lower than NOAEL: 3 mg/m^2 human starting dose
# Method: The proposed clinical trial will be a multicenter, open-label, dose-escalation, safety, pharmacodynamic and pharmacokinetic study in patients with advanced solid tumors administered GO-203-2c IV over 60 min once per day for 21 consecutive days; this dosing regimen will be repeated every 28 days. Since the majority of the treatment-related findings in rats and dogs were localized at the infusion site or were secondary to the infusion site reactions, the no-observed-adverse-effect-level (NOAEL) for systemic toxicity in the pivotal repeat-dose rat toxicity study was determined to be 5 mg/kg/day. The highest non-severely toxic dose (HNSTD), which was also considered the NOAEL, was established as 1 mg/kg/day in the dog pivotal repeat-dose toxicity study. For vascular injury at the injection site, the NOAEL in rats is […]. This concentration rate is 25-fold greater than the estimated concentration rate for humans (0.83 μg/mL/min) at the recommended starting dose of 3 mg/m2/day (assumes a body mass of 1.65 m2).
# Solubility = format: physicochemical; details: for solubility: as peptide
# Hygroscopicity = format: physicochemical; details: drug substance powder
# Description: There is no evidence to support an isolable hydrate. GO-203-2c HCl is hygroscopic, and precautions must be taken to avoid moisture uptake while handling the drug substance powder.
# adrenergic α1A receptor = adrenergic α1A receptor (Homo sapiens, UniProt P35348); assay: biochemical
# Chain of adrenergic α1A receptor (P35348 whole entry): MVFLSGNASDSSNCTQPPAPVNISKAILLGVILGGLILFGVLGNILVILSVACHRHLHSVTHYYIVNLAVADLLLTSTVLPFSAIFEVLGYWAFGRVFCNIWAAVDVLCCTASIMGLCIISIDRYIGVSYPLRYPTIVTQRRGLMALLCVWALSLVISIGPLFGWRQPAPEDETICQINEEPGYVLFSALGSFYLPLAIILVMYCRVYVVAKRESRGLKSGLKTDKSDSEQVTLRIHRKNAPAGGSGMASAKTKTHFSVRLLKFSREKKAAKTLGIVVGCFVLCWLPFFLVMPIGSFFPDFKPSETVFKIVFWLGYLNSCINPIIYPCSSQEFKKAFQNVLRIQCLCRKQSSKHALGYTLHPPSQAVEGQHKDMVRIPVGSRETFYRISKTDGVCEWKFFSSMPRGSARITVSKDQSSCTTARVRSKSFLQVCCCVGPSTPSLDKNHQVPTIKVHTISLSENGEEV
# [7] = target: nicotinic acetylcholine α1 (bungarotoxin) receptor (Homo sapiens, UniProt P02708+P07510+Q07001); assay: biochemical
# Chain of nicotinic acetylcholine α1 (bungarotoxin) receptor (P07510 23-517): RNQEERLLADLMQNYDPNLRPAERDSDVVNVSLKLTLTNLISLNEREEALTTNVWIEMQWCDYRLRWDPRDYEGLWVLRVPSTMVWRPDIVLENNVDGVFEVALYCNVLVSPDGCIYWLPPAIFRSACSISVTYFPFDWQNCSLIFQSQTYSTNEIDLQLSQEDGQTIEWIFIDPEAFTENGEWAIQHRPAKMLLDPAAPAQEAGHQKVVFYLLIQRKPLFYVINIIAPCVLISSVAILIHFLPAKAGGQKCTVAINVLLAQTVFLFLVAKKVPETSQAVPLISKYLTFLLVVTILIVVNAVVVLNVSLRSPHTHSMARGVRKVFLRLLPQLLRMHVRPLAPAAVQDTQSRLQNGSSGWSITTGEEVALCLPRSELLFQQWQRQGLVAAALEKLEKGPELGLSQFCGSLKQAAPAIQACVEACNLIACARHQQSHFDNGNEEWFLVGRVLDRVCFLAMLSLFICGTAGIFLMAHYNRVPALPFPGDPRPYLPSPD
# Chain of nicotinic acetylcholine α1 (bungarotoxin) receptor (P02708 21-457): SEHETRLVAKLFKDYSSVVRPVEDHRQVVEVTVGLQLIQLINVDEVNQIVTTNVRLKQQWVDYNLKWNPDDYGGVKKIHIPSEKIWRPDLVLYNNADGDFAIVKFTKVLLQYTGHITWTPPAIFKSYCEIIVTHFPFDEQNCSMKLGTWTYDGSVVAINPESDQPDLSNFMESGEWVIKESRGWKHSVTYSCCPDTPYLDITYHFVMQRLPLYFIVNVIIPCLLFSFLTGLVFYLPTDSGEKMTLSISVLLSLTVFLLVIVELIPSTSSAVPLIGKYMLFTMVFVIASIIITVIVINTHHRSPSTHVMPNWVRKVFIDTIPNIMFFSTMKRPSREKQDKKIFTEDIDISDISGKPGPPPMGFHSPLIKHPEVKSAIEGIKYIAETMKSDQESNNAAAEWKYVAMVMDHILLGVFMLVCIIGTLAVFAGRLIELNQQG
# Chain of nicotinic acetylcholine α1 (bungarotoxin) receptor (Q07001 22-517): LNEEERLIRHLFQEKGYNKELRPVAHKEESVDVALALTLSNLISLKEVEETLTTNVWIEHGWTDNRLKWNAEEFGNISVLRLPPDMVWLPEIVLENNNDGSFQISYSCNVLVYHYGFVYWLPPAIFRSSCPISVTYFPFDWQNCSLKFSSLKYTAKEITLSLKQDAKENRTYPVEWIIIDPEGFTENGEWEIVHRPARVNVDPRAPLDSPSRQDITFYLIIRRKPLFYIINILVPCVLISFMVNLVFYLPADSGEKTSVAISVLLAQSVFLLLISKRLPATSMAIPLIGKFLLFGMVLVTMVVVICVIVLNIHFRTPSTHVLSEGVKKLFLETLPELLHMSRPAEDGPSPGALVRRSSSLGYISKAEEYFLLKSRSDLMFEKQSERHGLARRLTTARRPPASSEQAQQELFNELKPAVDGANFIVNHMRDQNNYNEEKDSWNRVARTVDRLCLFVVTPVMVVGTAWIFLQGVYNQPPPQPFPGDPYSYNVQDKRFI
# Chain of nicotinic acetylcholine α1 (bungarotoxin) receptor (P11230 24-501, further chain): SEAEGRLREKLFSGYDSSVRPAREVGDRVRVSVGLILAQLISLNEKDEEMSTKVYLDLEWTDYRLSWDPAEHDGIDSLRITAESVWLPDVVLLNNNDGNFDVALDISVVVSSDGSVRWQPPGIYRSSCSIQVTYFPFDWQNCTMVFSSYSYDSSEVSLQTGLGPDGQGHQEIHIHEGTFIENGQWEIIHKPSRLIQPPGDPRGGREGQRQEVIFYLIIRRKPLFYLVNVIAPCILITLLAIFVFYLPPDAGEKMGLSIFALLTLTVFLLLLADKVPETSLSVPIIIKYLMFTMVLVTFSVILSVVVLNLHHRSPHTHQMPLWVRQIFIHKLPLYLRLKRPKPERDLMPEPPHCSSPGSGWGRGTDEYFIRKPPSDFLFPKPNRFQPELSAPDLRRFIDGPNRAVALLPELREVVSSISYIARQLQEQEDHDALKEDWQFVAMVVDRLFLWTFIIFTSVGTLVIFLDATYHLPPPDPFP
# dopamine D1 receptor = dopamine D1 receptor (Homo sapiens, UniProt P21728); assay: biochemical
# Chain of dopamine D1 receptor (P21728 whole entry, species assumed): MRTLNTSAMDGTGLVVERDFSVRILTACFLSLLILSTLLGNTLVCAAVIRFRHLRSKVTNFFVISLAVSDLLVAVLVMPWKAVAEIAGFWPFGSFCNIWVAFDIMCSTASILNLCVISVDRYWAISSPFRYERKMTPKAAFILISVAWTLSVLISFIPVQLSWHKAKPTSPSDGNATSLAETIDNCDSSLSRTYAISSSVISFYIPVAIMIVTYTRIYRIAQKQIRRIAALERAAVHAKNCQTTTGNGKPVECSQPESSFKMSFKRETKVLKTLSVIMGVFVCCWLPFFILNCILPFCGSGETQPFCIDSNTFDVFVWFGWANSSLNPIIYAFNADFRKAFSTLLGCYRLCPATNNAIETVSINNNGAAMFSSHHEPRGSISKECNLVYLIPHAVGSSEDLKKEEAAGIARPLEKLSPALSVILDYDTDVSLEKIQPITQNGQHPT
compound,measurement,setting,value
"CC(=O)N[C@H](CCCNC(=N)N)C(=O)N[C@H](CCCNC(=N)N)C(=O)N[C@H](CCCNC(=N)N)C(=O)N[C@H](CCCNC(=N)N)C(=O)N[C@H](CCCNC(=N)N)C(=O)N[C@H](CCCNC(=N)N)C(=O)N[C@H](CCCNC(=N)N)C(=O)N[C@H](CCCNC(=N)N)C(=O)N[C@H](CCCNC(=N)N)C(=O)N[C@@H]1CSSC[C@H](C(=O)N[C@H](CCCNC(=N)N)C(=O)N[C@H](CCCNC(=N)N)C(=O)N[C@H](CCCCN)C(=O)N[C@H](CC(N)=O)C(N)=O)NC(=O)[C@@H](CCC(N)=O)NC1=O [GO-203-2c, Ac-(D)Arg-(D)Arg-(D)Arg-(D)Arg-(D)Arg-(D)Arg-(D)Arg-(D)Arg-(D)Arg-(D)Cys-(D)Gln-(D)Cys-(D)Arg-(D)Arg-(D)Lys-(D)Asn-NH2 disulfide] (Ac-[dR][dR][dR][dR][dR][dR][dR][dR][dR][dC][dQ][dC][dR][dR][dK][dN]-NH2; disulfide 10-12)",% Inhibition of cell viability,A549 NSCLC,73.1%
same,% Inhibition of cell viability,H1650 NSCLC,89.0%
same,% Inhibition of cell viability,H1975 NSCLC,46.2%
same,% Inhibition of cell viability,KW-807 LN NSCLC,40.3%
same,% Inhibition of cell viability,KW-814 T6 NSCLC,70.1%
same,% Inhibition of cell viability,MCF-7 breast carcinoma,87.7%
same,% Inhibition of cell viability,[1],81.5%
same,% Inhibition of cell viability,ZR-75-1 breast carcinoma,43.6%
same,50% inhibition (IC50) of proliferation,[2],5 to 11 µg/mL
same,IC50,[2],2 to 5 µM
same,Tumor response,[3]; 1 mg/kg IV daily for 21 days,Partial tumor regression
same,Tumor response,[3]; 4 mg/kg IV daily for 21 days,complete regression of tumor growth
same,Mice completely cured,[4]; 2 dosing cycles,Two of 8
same,Tumor response,[4]; 2 dosing cycles (5 days on/2 days off),Tumor regression
same,Mice completely cured,[4]; 3 dosing cycles,Three of 8
same,Tumor response,[4]; 3 dosing cycles (5 days on/2 days off),"tumor growth arrest during the treatment period, but the tumors resumed growth; also recorded: substantial regression of tumors"
same,Tumor response,[4]; one dosing cycle (5 days on/2 days off),partial tumor regression
same,Tumor response after re-dosing,[4]; additional 2 cycles from Day 29 in 5 mice with re-growing tumors,somewhat stabilized with very slow growth
same,Tumor response,[5]; 5 days on/2 days off x 3 cycles,"tumor growth arrest during the treatment period, but the tumors resumed growth; also recorded: started growing steadily after day 9"
same,Tumor response,[5]; daily x 21 days,slowed down tumor growth substantially
same,Tumor response after re-dosing,[5]; additional 9 days of treatment from day 29,somewhat stabilized with a very slow growth
same,Average tumor size on day 29,"[5]; daily x 21 days group after 7 days of rest, at start of re-dosing",~900 mm^3
same,HNSTD or NOAEL,[6]; body surface area basis,20 mg/m2/day
same,NOAEL,"[6]; in vivo, repeat-dose IV, read-out: Highest non-severely toxic dose (HNSTD), also considered the NOAEL",1 mg/kg/day
same,Safety margin: human starting dose lower than NOAEL,[6]; mg/kg basis,12 fold
same,Safety margin: human starting dose lower than NOAEL,[6]; mg/m^2 basis,6.7 fold
same,solubility,"Solubility; 10 mM acetate pH 3.0-4.0, 0.9% NaCl",> 50 mg/mL
same,solubility,Solubility; 10 mM acetate pH 4.0,7 to 37 mg/mL
same,solubility,Solubility; 1% (v/v) aqueous acetic acid,> 110 mg/mL
same,solubility,Solubility; 10% (v/v) aqueous acetonitrile,> 110 mg/mL
same,Time without gel formation,"Solubility; solutions in water, 1% aqueous acetic acid or 10% aqueous acetonitrile",at least 5 days
same,solubility,Solubility; water,> 240 mg/mL
same,Hygroscopicity,Hygroscopicity,hygroscopic
same,IC50,adrenergic α1A receptor,3 to 8 µM
same,IC50,[7],3 to 8 µM
same,IC50,dopamine D1 receptor,10.5 µM
